Reference: patent US7834148B2, “Protein phosphorylation imaging systems, methods of making phosphorylation imaging systems, and methods of use thereof” (Stanford University, priority 2006, dated 2010)

How the values were obtained:
[1] = test system: Akt kinase activity; test: Bioluminescence imaging of nude mice bearing 293T/AS1T and 293T/AS1A xenografts; format: in vivo; conditions: 30 mg/kg
Description: FIGS. 10a-10b illustrate the inhibition of Akt kinase activity by perifosine in living mice. FIG. 10a illustrates the efficacy of perifosine in inhibition of Akt kinase activity in living subjects was determined by bioluminescence imaging of nude mice bearing 293T/AS1A and 293T/AS1T xenografts. Mice were treated with 30 mg/kg of perifosine or carrier control at time 0 hour and re-imaged at 6, 15, 27 and 39 hours upon i.p. injection of D-Luciferin. FIG. 10b illustrate the max photons at each time point was normalized to that of carrier control treated mice and expressed as average normalized max photons+/−S.E.M. for each xenograft. It should be noted that p<0.05 relative to AS1A xenografts.
To determine if sufficient sensitivity for indirect imaging of Akt kinase activity has been achieved in living subjects, 293T/AS1T and 293T/AS1A cells were implanted at the lower left and right of nude mice for xenograft establishment. Since the bioluminescence signal from untreated 293T/AS1A cells was about 10-fold higher than that of 293T/AS1T cells in cell culture studies, 10% 293T/AS1A cells were mixed with 90% untransfected 293T cells (no FL activity) prior to implantation to normalize the signals to that of 293T/AS1T cells. Complemented FL activity in living mice was determined by bioluminescence imaging using a cooled coupled charged device (CCD) camera upon i.p. injection of D-luciferin. […] Perifosine was chosen over LY for these animal experiments since perifosine is water soluble and currently being evaluated in clinical trials. […] 6 hours of perifosine treatment led of a 20% decrease in complemented FL activity in 293T/AS1A but a 60% increase in complemented FL activity in 293T/AS1T relative to carrier control treated mice (p<0.05), corresponding to the 2-fold difference between AS1T and AS1A (FIG. 10b).
All of the animal handling was performed in accordance with Stanford University Animal Research Committee guidelines, Mice were gas anesthetized using isofluorane (2% isofluorane in 100% oxygen) during all injection and imaging procedures. Mice were imaged using a cooled CCD camera (Xenogen IVIS29; Xenogen Corp., Alameda, Calif.). […] To quantify the measured light, regions of interest were drawn over the area of the implanted cells, and the maximum photons/s/cm^2/steradian (sr) were obtained as validated previously. […] Max photons at time 6, 12 and 24 hours were normalized to that of time 0 hr for each individual mouse, and expressed as normalized average max photons±S.E.M.

[2] = Water solubility (statement); format: physicochemical
[3] = test system: Akt kinase; test: In vitro Akt kinase assay in cell lysates using purified GSK-3β as substrate; format: cell-based, human; conditions: LY 24 hours or perifosine 6 hours
Description: Complemented FL activities were determined by bioluminescence imaging of intact cells while Akt phosphorylation status/kinase activities in cell lysates were determined by phosphorylation-specific western blotting and in vitro kinase assay using purified glycogen synthase kinase 3β (GSK-3β) as the substrate, respectively.
To measure Akt kinase activities, 200 μg of whole cell lysates were used in an in vitro Akt kinase assay using a Cell Signaling kit (Beverly, Mass.). Briefly, Akt was immunoprecipitated using the immobilized Akt antibody, followed by an in vitro kinase assay at 30° C. for 1 hour using 1 μg of the purified GSK-3β fusion protein as the substrate. The kinase reaction was terminated with 3× loading buffer and heated at 95° C. for 3 mins. […] Membranes were developed as described above. In all cases, band intensities were quantified by Image J (National Institute of Health, Bethesada, Md.).

## CCCCCCCCCCCCCCCCCCOP(=O)([O-])OC1CC[N+](C)(C)CC1 [perifosine]
[1]; 293T/AS1A xenografts, 6 hours, relative to carrier control treated mice
  decrease in complemented FL activity: 20%
[1]; 293T/AS1T and 293T/AS1A xenografts, later than 6 hours, relative to carrier control, p>0.05
  complemented FL activity at later time points: no significant difference
[1]; 293T/AS1T xenografts, 6 hours, relative to carrier control treated mice, p<0.05
  increase in complemented FL activity: 60%
[1]; xenografts, 6 hours
  difference between AS1T and AS1A: 2 fold
[2]
  water solubility: water soluble
[3]; 293T/AS1A cells
  amount of phosphorylated GSK-3β: decreased
[3]; 293T/AS1T cells, relative to carrier control
  amount of phosphorylated GSK-3β: decreased
